The test system of assay [1] is AsPC-1 (G12D). As to the kind of experiment: KRAS mutant cell proliferation inhibition assay (CellTiter-Glo 3D), AsPC-1. The assay is classed as cell-based, human. Particulars: AsPC-1 (G12D) cells, 7 days. As for the experimental part:
(§1) Positive control: MRTX1133
(§2) • (a) The cells were thawed in T75 cell culture flasks: • (b) When 80%-90% cell confluence was achieved, the cells were passaged.
(§3) The diluted test compound was added to a 384-well cell culture plate using a nanoliter pipetting system, and replicate wells were set. An equal volume of medium was added to the positive control group; an equal volume of DMSO was added to the negative control group. The plate was centrifuged at 1000 rpm at room temperature for 1 min.
(§4) The cells were seeded into a) 384-well culture plate. An equal volume of cells was added to the negative control group, and only an equal volume of medium was added to the positive control group. The plate was centrifuged at 1000 rpm at room temperature for 1 min. The final DMSO concentration in the final compound was 0.5%. The plate was incubated in a thermostatic incubator at 37° C. with 5% CO2 for 7 days.
(§5) CellTiter-Glo® 3D was added to b) 384-well cell culture plate at 20 μL/well. The plate was shaken at 320 rpm in the dark for 20 min, and incubated at room temperature in the dark for 2 h. The luminescence values were read using an Envision multi-mode microplate reader.
(§6) The inhibition rates (IRs) of the test compounds were calculated according to the following formula: IR (%)=(1−(RLU compound−RLU blank control)/(RLU vehicle control−RLU blank control))×100%. The inhibition rates of the compounds at different concentrations were calculated in Excel, and then inhibition curves were plotted and relevant parameters including minimum inhibition rate, maximum inhibition rate and IC50 were calculated using GraphPad Prism software.
(Cellular ATP, detected with luciferase, serves as a proxy for viable cell number.)

Assay [2] concerns SW480 (G12V). As to the kind of experiment: KRAS mutant cell proliferation inhibition assay (CellTiter-Glo 3D), SW480. The assay is classed as cell-based. Particulars: SW480 (G12V) cells, 7 days. The method, then: as §1, §2, §3, §4, §5, §6

Structures are written as SMILES. Where a name gives a salt, the structure may show the parent alone.

What is called IC50 is the concentration that gives 50% inhibition. A higher IC50 goes with lower potency. `CCc1c(F)ccc2cc(O)cc(-c3ncc4c(N(C)C5CC5)nc(OC[C@@]56CCCN5C[C@@]5(CC5(F)F)C6)nc4c3F)c12` [Example A-40, 4-(4-(Cyclopropyl(methyl)amino)-2-(((1S,7a'S)-2,2-difluorodihydro-1′H,3′ H-spiro[cyclopropane-1,2′-pyrrolizin]-7a′ (5′H)-yl)methoxy) 8-fluoropyrido[4,3-d]pyrimidin-7-yl)-5-ethyl-6-fluoronaphthalen-2-ol] registered an IC50 in assay [1] (Homo sapiens, ASPC1, 168 h) greater than 1000 nM.

In the case of `CCc1c(F)ccc2cc(O)cc(-c3ncc4c(N5CCC[C@]6(CCO6)C5)nc(OC[C@@]56CCCN5C[C@@]5(CC5(F)F)C6)nc4c3F)c12` (single isomer, unassigned) [Example A-16B], the IC50 was 387 nM in assay [1] (Homo sapiens, ASPC1, 168 h) and 660 nM in assay [2] (Homo sapiens, 168 h).

For the compound `CCc1c(F)ccc2cc(O)cc(-c3ncc4c(N5CCOCC(F)(F)C5)nc(OC[C@@]56CCCN5C[C@@]5(CC5(F)F)C6)nc4c3F)c12` [Example A-35, 4-(4-(6,6-Difluoro-1,4-oxazepan-4-yl)-2-(((1.S,7a'S)-2,2-difluorodihydro-1′H,3′H-spiro[cyclopropane-1,2′-pyrrolizin]-7a′ (5′H)-yl)methoxy)-8-fluoropyrido[4,3-d]pyrimidin-7-yl)-5-ethyl-6-fluoronaphthalen-2-ol], the IC50 in assay [2] (Homo sapiens, 168 h) worked out at 159 nM.

Compound `CC(C1CC1)N(C)c1nc(OC[C@@]23CCCN2C[C@@]2(CC2(F)F)C3)nc2c(F)c(-c3cc(N)cc(Cl)c3C(F)(F)F)ncc12` (stereo partly shown) [Example A-43, 7-(5-Amino-3-chloro-2-(trifluoromethyl)phenyl)-N-(1-cyclopropylethyl)-2-(((1.S,7a'S)-2,2-difluorodihydro-1′H,3′H-spiro[cyclopropane-1,2′-pyrrolizin]-7a′ (5′H)-yl)methoxy)-8-fluoro-N-methylpyrido[4,3-d]pyrimidin-4-amine trifluoroacetate] had an IC50 in assay [1] (Homo sapiens, ASPC1, 168 h) of 986 nM.

In turn, `CCc1c(F)ccc2cc(O)cc(-c3ncc4c(N5CCC6(COC6)C5)nc(OC[C@@]56CCCN5C[C@@]5(CC5(F)F)C6)nc4c3F)c12` [Example A-21, 4-(2-(((1S,7a'S)-2,2-Difluorodihydro-1′H,3′H-spiro[cyclopropane-1,2′-pyrrolizin]-7a′ (5′H)-yl)methoxy)-8-fluoro-4-(2-oxa-6-azaspiro[3.4]octan-6-yl)pyrido[4,3-d]pyrimidin-7-yl)-5-ethyl-6-fluoronaphthalen-2-ol] returned an IC50 in assay [1] (Homo sapiens, ASPC1, 168 h) greater than 1000 nM.

Turning to `CCc1c(F)ccc2cc(O)cc(-c3ncc4c(N(C)[C@H]5C[C@@H]5F)nc(OC[C@@]56CCCN5C[C@@]5(CC5(F)F)C6)nc4c3F)c12` [Example A-45, 4-(2-(((1,5,7a'S)-2,2-Difluorodihydro-1′H,3′H-spiro[cyclopropane-1,2′-pyrrolizin]-7a′ (5′H)-yl)methoxy)-8-fluoro-4-(((trans)-2-fluorocyclopropyl)(methyl)amino)pyrido[4,3-d]pyrimidin-7-yl)-5-ethyl-6-fluoronaphthalen-2-ol], the IC50 in assay [1] (Homo sapiens, ASPC1, 168 h) was 74.4 nM; in assay [2] (Homo sapiens, 168 h), 41 nM.

`CN(C)C(=O)c1cc2n(n1)CCCN(c1nc(OC[C@]34CCCN3C[C@]3(CC3(F)F)C4)nc3c1CCN(c1cccc4ccc(F)c(Cl)c14)C3)C2` [Example B-16, 5-(7-(8-Chloro-7-fluoronaphthalen-1-yl)-2-(((trans)-2,2-2,2-fluorodihydro-1′H,3′H-spiro[cyclopropane-1,2′-pyrrolizin]-7a′ (5′H)-yl)methoxy)-5,6,7,8-tetrahydropyrido[3,4-d]pyrimidin-4-yl)-N,N-dimethyl-5,6,7,8-tetrahydro-4H-pyrazolo[1,5-a][1,4]diazepine-2-carboxamide]: the IC50 in assay [1] (Homo sapiens, ASPC1, 168 h) is greater than 1000 nM.

In turn, `CN(C)C(=O)c1cc2n(n1)CCCN(c1nc(OC[C@@]34CCCN3C[C@@]3(CC3(F)F)C4)nc3c1CCN(c1ccc(F)c4sc(N)c(C#N)c14)C3)C2` [Example B-15, 5-(7-(2-Amino-3-cyano-7-fluorobenzo[b]thiophen-4-yl)-2-(((trans)-2,2-fluorodihydro-1′H,3′H-spiro[cyclopropane-1,2′-pyrrolizin]-7a′ (5′H)-yl)methoxy)-5,6,7,8-tetrahydropyrido[3,4-d]pyrimidin-4-yl)-N,N-dimethyl-5,6,7,8-tetrahydro-4H-pyrazolo[1,5-a][1,4]diazepine-2-carboxamide] gave an IC50 in assay [1] (Homo sapiens, ASPC1, 168 h) greater than 1000 nM.

As for `C#Cc1c(F)ccc2cc(O)cc(-c3ncc4c(N5CCCOC6CC65)nc(OC[C@@]56CCCN5C[C@@]5(CC5(F)F)C6)nc4c3F)c12` (stereo partly drawn) [Example A-29, 4-(4-((cis)-2-Oxa-6-azabicyclo[5.1.0]octan-6-yl)-2-(((1,5,7a'S)-2,2-difluorodihydro-1′H,3′H-spiro[cyclopropane-1,2′-pyrrolizin]-7a′ (5′H)-yl)methoxy)-8-fluoropyrido[4,3-d]pyrimidin-7-yl)-5-ethynyl-6-fluoronaphthalen-2-ol], the IC50 in assay [1] (Homo sapiens, ASPC1, 168 h) stood at 4.85 nM; in assay [2] (Homo sapiens, 168 h), 2.1 nM.

`CCc1c(F)ccc2cc(O)cc(-c3ncc4c(N5CC6COC(C6)C5)nc(OC[C@@]56CCCN5C[C@@]5(CC5(F)F)C6)nc4c3F)c12` (stereo partly shown) [Example A-33]: in assay [2] (Homo sapiens, 168 h), the IC50 came to 168 nM.

Turning to `CCc1c(F)ccc2cc(O)cc(-c3ncc4c(N5CCC[C@@]6(CCO6)C5)nc(OC[C@@]56CCCN5C[C@@]5(CC5(F)F)C6)nc4c3F)c12` [Example A-16A, 4-(2-(((15,7a'S)-2,2-difluorodihydro-1′H,3′H-spiro[cyclopropane-1,2′-pyrrolizin]-7a′ (5′H)-yl)methoxy)-8-fluoro-4-((R)-1-oxa-6-azaspiro[3.5]nonan-6-yl)pyrido[4,3-d]pyrimidin-7-yl)-5-ethyl-6-fluoronaphthalen-2-ol], the IC50 in assay [1] was determined as 5.7 nM; in assay [2] it was 11.1 nM.

For the compound `CCc1c(F)ccc2cc(O)cc(-c3ncc4c(N5CCC6(CCO6)C5)nc(OC[C@@]56CCCN5C[C@@]5(CC5(F)F)C6)nc4c3F)c12` (stereo partly shown) [Example A-22, 4-(2-(((1.S,7a'S)-2,2-Difluorodihydro-1′H,3′H-spiro[cyclopropane-1,2′-pyrrolizin]-7a′ (5′H)-yl)methoxy)-8-fluoro-4-(1-oxa-6-azaspiro[3.4]octan-6-yl)pyrido[4,3-d]pyrimidin-7-yl)-5-ethyl-6-fluoronaphthalen-2-ol], in assay [1] (Homo sapiens, ASPC1, 168 h), the IC50 is greater than 1000 nM.

In assay [2] (Homo sapiens, 168 h), `Nc1cc(Cl)c(C(F)(F)F)c(-c2ncc3c(N4CC5COC(C5)C4)nc(OC[C@@]45CCCN4C[C@@]4(CC4(F)F)C5)nc3c2F)c1` (stereo partly drawn) [Example A-32, 3-(4-(6-Oxa-3-azabicyclo[4.2.1]nonan-3-yl)-2-(((1S,7a'S)-2,2-difluorodihydro-1′H,3′H-spiro[cyclopropane-1,2′-pyrrolizin]-7a′ (5′H)-yl)methoxy)-8-fluoropyrido[4,3-d]pyrimidin-7-yl)-5-chloro-4-(trifluoromethyl)aniline] returned an IC50 of 336 nM.

In assay [1] (Homo sapiens, ASPC1, 168 h), `CCc1c(F)ccc2cc(O)cc(-c3ncc4c(N(C)C(C)C5CC5)nc(OC[C@@]56CCCN5C[C@@]5(CC5(F)F)C6)nc4c3F)c12` (stereo partly shown) [Example A-42, 4-(4-((1-Cyclopropylethyl)(methyl)amino)-2-(((15,7a'S)-2,2-difluorodihydro-1′H,3′H-spiro[cyclopropane-1,2′-pyrrolizin]-7a′ (5′H)-yl)methoxy)-8-fluoropyrido[4,3-d]pyrimidin-7-yl)-5-ethyl-6-fluoronaphthalen-2-ol trifluoroacetate] came in with an IC50 greater than 1000 nM.

In assay [2] (Homo sapiens, 168 h), `CCc1c(F)ccc2cc(O)cc(-c3ncc4c(N5CCCCC(F)C5)nc(OC[C@@]56CCCN5C[C@@]5(CC5(F)F)C6)nc4c3F)c12` (stereo partly drawn) [Example A-36, 4-(2-(((1S,7a'S)-2,2-Difluorodihydro-1′H,3′H-spiro[cyclopropane-1,2′-pyrrolizin]-7a′ (5′H)-yl)methoxy)-8-fluoro-4-(3-fluoroazepan-1-yl)pyrido[4,3-d]pyrimidin-7-yl)-5-ethyl-6-fluoronaphthalen-2-ol] came in with an IC50 of 102 nM. In other words, the sub-micromolar range.

Take `CN(c1nc(OC[C@@]23CCCN2C[C@@]2(CC2(F)F)C3)nc2c(F)c(-c3cc(N)cc(Cl)c3C(F)(F)F)ncc12)C1CC1` [Example A-41, 7-(5-Amino-3-chloro-2-(trifluoromethyl)phenyl)-N-cyclopropyl-2-(((1S,7a'S)-2,2-difluorodihydro-1′H,3′H-spiro[cyclopropane-1,2′-pyrrolizin]-7a′ (5′H)-yl)methoxy)-8-fluoro-N-methylpyrido[4,3-d]pyrimidin-4-amine]: the IC50 in assay [1] (Homo sapiens, ASPC1, 168 h) was greater than 1000 nM.

For `CCc1c(F)ccc2cc(O)cc(-c3ncc4c(N5CCOCC(F)C5)nc(OC[C@@]56CCCN5C[C@@]5(CC5(F)F)C6)nc4c3F)c12` (stereo partly drawn) [Example A-34, 4-(2-(((1S,7a'S)-2,2-Difluorodihydro-1′H,3′H-spiro[cyclopropane-1,2′-pyrrolizin]-7a′ (5′H)-yl)methoxy)-8-fluoro-4-(6-fluoro-1,4-oxazepan-4-yl)pyrido[4,3-d]pyrimidin-7-yl)-5-ethyl-6-fluoronaphthalen-2-ol], the IC50 in assay [2] (Homo sapiens, 168 h) was 66.7 nM.

In assay [1] (Homo sapiens, ASPC1, 168 h), `CCc1c(F)ccc2cc(O)cc(-c3ncc4c(N5CC6(CCO6)C5)nc(OC[C@@]56CCCN5C[C@@]5(CC5(F)F)C6)nc4c3F)c12` [Example A-23, 4-(2-(((1S,7a'S)-2,2-Difluorodihydro-1′H,3′H-spiro[cyclopropane-1,2′-pyrrolizin]-7a′ (5′H)-yl)methoxy)-8-fluoro-4-(1-oxa-6-azaspiro[3.4]heptan-6-yl)pyrido[4,3-d]pyrimidin-7-yl)-5-ethyl-6-fluoronaphthalen-2-ol] had an IC50 greater than 1000 nM.

These data come from patent US20260015363A1, “SUBSTITUTED PYRIMIDINE-FUSED RING INHIBITOR, METHOD FOR PREPARING SAME, AND USE THEREOF” (Suzhou Zelgen Biopharmaceuticals Co., Ltd., priority 2022, published 2026).
